According to article PMC10987949, “Inhibition of HIV-1 release by ADAM metalloproteinase inhibitors” (Frontiers in Microbiology, 2024):

Assays:
HIV = tested on: HIV; set-up: method as in Kononchik et al., 2018; conditions: ref Kononchik et al., 2018; cited from earlier work
ADAM9, 10 and 17 mRNA = assay: RT-PCR of ADAM9, 10 and 17 mRNA in HIV-1BAL infected PBMC; type: cell-based, human; conditions: day 3 and 6 of infected samples
Protocol: RT-PCR using ADAM9, 10 and 17 primer probes was assayed using TaqMan primer/probe sets from ThermoFisher with a 50 ng cDNA template as described previously ([Chun et al., 2013]; [Kononchik et al., 2018]). The following TaqMan 20X Gene Expression Assay probes (Dye: FAM-MGB) were used: ADAM9 (Hs00177638_m1), ADAM10 (Hs00153853_m1), ADAM17 (Hs01041915_m1). Expression Assay standard probes (Dye: VIC-MGB) for β-Actin (Hs01060665_g1) or RNase P/RPPH1 (4403328) were used as gene expression controls. Briefly, HIV infected or uninfected cells from triplicate experiments were washed 3x in PBS and lysed for RNA isolation using RNeasy mini kit (QIAGEN corp). The corresponding cDNA samples were prepared using either TaqMan microRNA reverse transcription kit or Invitrogen High-Capacity cDNA reverse transcription kit (Thermo Fisher). Samples were run in duplicate across triplicate experiments on an ABI 7300 Real-Time PCR System (Applied Biosystems) with a threshold of 0.2. Relative gene expression was calculated using the 2^-ΔCt method and normalized to β-Actin or RNaseP as the endogenous controls. All statistical analyses were carried out using the software Prism 8 (GraphPad Software, Inc). Western blot analyses were used to detect the mature active form of ADAMs ([Pereira Vatanabe et al., 2021]). […]

## CNC(=O)[C@H](Cc1ccccc1)NC(=O)[C@H](CC(C)C)[C@H](CSc1cccs1)C(=O)NO [BB-94, Batimastat]
HIV
  effect on HIV cell-to-cell transfer infections: effectively suppressed HIV cell-to-cell transfer infections
ADAM9, 10 and 17 mRNA
  HIV-1BAL induced increase of ADAM9, 10, 17 mRNA: increase was not observed
